Where a name gives a salt, the structure may show the parent alone. Read-outs that look alike come from different tables or passages of the source.
Biological target: T1, BCL6 (Homo sapiens, UniProt P41182)
T1 construct: endogenous in cells; host or cells: T47D breast cancer epithelial cells
Assay: Immunofluorescence protocol for high content imaging of BCL6 (degradation) in T47D cells, 3 days compound treatment
Type: cell-based
Details: for Dmax: read-out: Mean Dmax (%)** category; for DC50: read-out: Mean DC50 (nM)* category
Method in brief: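 Remaining BCL6 in breast cancer T47D cells was measured by high-content immunofluorescence imaging after 3 days of treatment with serially diluted compound (top 0.1 or 1 μM). Nuclei were stained with Hoechst and cells with CellMask.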

[1] = T47D cells, 3 days compound treatment

| SMILES | Dmax (T47D) | DC50 | DC50 [1] | Dmax [1] |
| --- | --- | --- | --- | --- |
| CNC(=O)COc1cc2cc(Nc3nc(N4CCC(O[C@H]5C[C@H](N6CCC7(c8ccc9c(c8F)CN(C8CCC(=O)NC8=O)C9=O)CC7C6)C5)CC4)ncc3Cl)ccc2n(C(C)C)c1=O (some centres unmarked) [Compound 283, 2-({6-[(5-chloro-2-{4-[(1r,3r)-3-{6-[2-(2,6-dioxopiperidin-3-yl)-4-fluoro-1-oxo-2,3-dihydro-1H-isoindol-5-yl]-3-azabicyclo[4.1.0]heptan-3-yl}cyclobutoxy]piperidin-1-yl}pyrimidin-4-yl)amino]-2-oxo-1-(propan-2-yl)-1,2-dihydroquinolin-3-yl}oxy)-N-methylacetamide] | ≥ 70% | < 10 nM | – | – |
| CNC(=O)COc1cc2cc(Nc3nc(N4CCC(O[C@H]5C[C@H](N6CCN(c7ccc8c(c7)C(=O)N(C7CCC(=O)NC7=O)C8=O)[C@H](C)C6)C5)CC4)ncc3Cl)ccc2n(C(C)C)c1=O (stereo partly drawn) [Compound 387, 2-({6-[(5-chloro-2-{4-[(1r,3r)-3-[(3R)-4-[2-(2,6-dioxopiperidin-3-yl)-1,3-dioxo-2,3-dihydro-1H-isoindol-5-yl]-3-methylpiperazin-1-yl]cyclobutoxy]piperidin-1-yl}pyrimidin-4-yl)amino]-2-oxo-1-(propan-2-yl)-1,2-dihydroquinolin-3-yl}oxy)-N-methylacetamide] | 50 to 70% | < 10 nM | – | – |
| CNC(=O)COc1cc2cc(Nc3nc(N4CCC(O[C@H]5C[C@H](N6CCC(c7ccc8c(n7)CN(C7CCC(=O)NC7=O)C8=O)CC6)C5)CC4)ncc3Cl)ccc2n(C(C)C)c1=O (some centres unmarked) [Compound 214, 2-({6-[(5-chloro-2-{4-[(1r,3r)-3-{4-[6-(2,6-dioxopiperidin-3-yl)-5-oxo-5H,6H,7H-pyrrolo[3,4-b]pyridin-2-yl]piperidin-1-yl}cyclobutoxy]piperidin-1-yl}pyrimidin-4-yl)amino]-2-oxo-1-(propan-2-yl)-1,2-dihydroquinolin-3-yl}oxy)-N-methylacetamide] | 50 to 70% | < 10 nM | – | – |
| CNC(=O)COc1cc2cc(Nc3nc(N4CCC(CN5CCN(c6ccc7c(c6)C(=O)N(C6CCC(=O)NC6=O)C7=O)CC5)CC4)ncc3Cl)ccc2n(C(C)C)c1=O (centres unmarked) [Compound 404, 2-{[6-({5-chloro-2-[4-({4-[2-(2,6-dioxopiperidin-3-yl)-1,3-dioxo-2,3-dihydro-1H-isoindol-5-yl]piperazin-1-yl}methyl)piperidin-1-yl]pyrimidin-4-yl}amino)-2-oxo-1-(propan-2-yl)-1,2-dihydroquinolin-3-yl]oxy}-N-methylacetamide] | 50 to 70% | 10 to 50 nM | – | – |
| CNC(=O)COc1cc2cc(Nc3nc(N4CCC(CN5CCC6(CC5)CC(c5ccc7c(c5)C(=O)N(C5CCC(=O)NC5=O)C7=O)C6)CC4)ncc3Cl)ccc2n(C(C)C)c1=O (centres unmarked) [Compound 150, 2-{[6-({5-chloro-2-[4-({2-[2-(2,6-dioxopiperidin-3-yl)-1,3-dioxo-2,3-dihydro-1H-isoindol-5-yl]-7-azaspiro[3.5]nonan-7-yl}methyl)piperidin-1-yl]pyrimidin-4-yl}amino)-2-oxo-1-(propan-2-yl)-1,2-dihydroquinolin-3-yl]oxy}-N-methylacetamide] | – | – | 10 to 50 nM | 50 to 70% |
| CNC(=O)COc1cc2cc(Nc3nc(N4CCC(CN5CCC6(CC5)CN(c5ccc7c(c5)C(=O)N(C5CCC(=O)NC5=O)C7=O)C6)CC4)ncc3Cl)cc(F)c2n(C(C)C)c1=O (centres unmarked) [Compound 111, 2-{[6-({5-chloro-2-[4-({2-[2-(2,6-dioxopiperidin-3-yl)-1,3-dioxo-2,3-dihydro-1H-isoindol-5-yl]-2,7-diazaspiro[3.5]nonan-7-yl}methyl)piperidin-1-yl]pyrimidin-4-yl}amino)-8-fluoro-2-oxo-1-(propan-2-yl)-1,2-dihydroquinolin-3-yl]oxy}-N-methylacetamide] | – | – | < 10 nM | 50 to 70% |
| CNC(=O)COc1cc2cc(Nc3nc(N4CCC5(CC4)CC(C(=O)N4CCC(c6cccc7c6CN(C6CCC(=O)NC6=O)C7=O)CC4)C5)ncc3Cl)ccc2n(C(C)C)c1=O (centres unmarked) [Compound 19, 2-[(6-{[5-chloro-2-(2-{4-[2-(2,6-dioxopiperidin-3-yl)-1-oxo-2,3-dihydro-1H-isoindol-4-yl]piperidine-1-carbonyl}-7-azaspiro [3.5]nonan-7-yl)pyrimidin-4-yl]amino}-2-oxo-1-(propan-2-yl)-1,2-dihydroquinolin-3-yl)oxy]-N-methylacetamide] | – | – | < 10 nM | 50 to 70% |
| CNC(=O)COc1cc2cc(Nc3nc(N4CCN(CC5CCN(c6ccc7c(c6OC)CN(C6CCC(=O)NC6=O)C7=O)CC5)CC4)ncc3Cl)ccc2n(C(C)C)c1=O (centres unmarked) [Compound 20, 2-{[6-({5-chloro-2-[4-({1-[2-(2,6-dioxopiperidin-3-yl)-4-methoxy-1-oxo-2,3-dihydro-1H-isoindol-5-yl]piperidin-4-yl}methyl)piperazin-1-yl]pyrimidin-4-yl}amino)-2-oxo-1-(propan-2-yl)-1,2-dihydroquinolin-3-yl]oxy}-N-methylacetamide] | – | – | ≥ 100 nM | ≥ 70% |
| CNC(=O)COc1cc2cc(Nc3nc(N4CCC(O[C@H]5C[C@H](N6CC[C@H](c7ccc8c(c7)C(=O)N(C7CCC(=O)NC7=O)C8)[C@H](F)C6)C5)CC4)ncc3Cl)ccc2n(C(C)C)c1=O (mixture of isomers) [Compound 132] | – | – | < 10 nM | 50 to 70% |
| CC(C)n1c(=O)c(OCC(=O)N(C)O)cc2cc(Nc3nc(N4CCC(O[C@H]5C[C@H](N6CCC(c7ccc8c(c7F)CN(C7CCC(=O)NC7=O)C8=O)CC6)C5)CC4)ncc3Cl)ccc21 (some centres unmarked) [Compound 265, 2-({6-[(5-chloro-2-{4-[(1r,3r)-3-{4-[2-(2,6-dioxopiperidin-3-yl)-4-fluoro-1-oxo-2,3-dihydro-1H-isoindol-5-yl]piperidin-1-yl}cyclobutoxy]piperidin-1-yl}pyrimidin-4-yl)amino]-2-oxo-1-(propan-2-yl)-1,2-dihydroquinolin-3-yl}oxy)-N-hydroxy-N-methylacetamide] | ≥ 70% | < 10 nM | – | – |
| CNC(=O)COc1cc2cc(Nc3nc(N4CCN(CC5CC6(CCN(c7ccc8c(c7)CN(C7CCC(=O)NC7=O)C8=O)CC6)C5)CC4)ncc3Cl)ccc2n(C(C)C)c1=O (centres unmarked) [Compound 6, 2-{[6-({5-chloro-2-[4-({7-[2-(2,6-dioxopiperidin-3-yl)-1-oxo-2,3-dihydro-1H-isoindol-5-yl]-7-azaspiro[3.5]nonan-2-yl}methyl)piperazin-1-yl]pyrimidin-4-yl}amino)-2-oxo-1-(propan-2-yl)-1,2-dihydroquinolin-3-yl]oxy}-N-methylacetamide] | – | – | < 10 nM | 50 to 70% |
| CNC(=O)COc1cc2cc(Nc3nc(N4CCN(CC5CCN(c6cc7c(cc6OC)C(=O)N(C6CCC(=O)NC6=O)C7)CC5)CC4)ncc3Cl)ccc2n(C(C)C)c1=O (centres unmarked) [Compound 21, 2-{[6-({5-chloro-2-[4-({1-[2-(2,6-dioxopiperidin-3-yl)-6-methoxy-1-oxo-2,3-dihydro-1H-isoindol-5-yl]piperidin-4-yl}methyl)piperazin-1-yl]pyrimidin-4-yl}amino)-2-oxo-1-(propan-2-yl)-1,2-dihydroquinolin-3-yl]oxy}-N-methylacetamide] | – | – | < 10 nM | < 50% |
| CNC(=O)COc1cc2cc(Nc3nc(N4CCC(O[C@H]5C[C@H](N6CC[C@H](c7ccc8c(c7F)CN(C7CCC(=O)NC7=O)C8=O)[C@H](O)C6)C5)CC4)ncc3Cl)ccc2n(C(C)C)c1=O (stereo partly drawn) [Compound 282, 2-({6-[(5-chloro-2-{4-[(1r,3r)-3-[(3S,4R)-4-[2-(2,6-dioxopiperidin-3-yl)-4-fluoro-1-oxo-2,3-dihydro-1H-isoindol-5-yl]-3-hydroxypiperidin-1-yl]cyclobutoxy]piperidin-1-yl}pyrimidin-4-yl)amino]-2-oxo-1-(propan-2-yl)-1,2-dihydroquinolin-3-yl}oxy)-N-methylacetamide] | 50 to 70% | < 10 nM | – | – |
| CNC(=O)COc1cc2cc(Nc3nc(N4CCC(CN5CCC6(CC5)CN(c5ccc7c(c5)C(=O)N(C5CCC(=O)NC5=O)C7=O)C6)CC4)ncc3Cl)ccc2n(CCOC)c1=O (centres unmarked) [Compound 37, 2-{[6-({5-chloro-2-[4-({2-[2-(2,6-dioxopiperidin-3-yl)-1,3-dioxo-2,3-dihydro-1H-isoindol-5-yl]-2,7-diazaspiro[3.5]nonan-7-yl}methyl)piperidin-1-yl]pyrimidin-4-yl}amino)-1-(2-methoxyethyl)-2-oxo-1,2-dihydroquinolin-3-yl]oxy}-N-methylacetamide] | – | – | < 10 nM | 50 to 70% |
| CNC(=O)COc1cc2cc(Nc3nc(N4CCC(O[C@H]5C[C@H](N6CCN(c7ccc8c(c7F)CN(C7CCC(=O)NC7=O)C8=O)CC6)C5)CC4)ncc3Cl)ccc2n(C(C)C)c1=O (some centres unmarked) [Compound 164, 2-[[6-[[5-chloro-2-[4-[3-[4-[2-(2,6-dioxo-3-piperidyl)-4-fluoro-1-oxo-isoindolin-5-yl]piperazin-1-yl]cyclobutoxy]-1-piperidyl]pyrimidin-4-yl]amino]-1-isopropyl-2-oxo-3-quinolyl]oxy]-N-methyl-acetamide formate] | – | – | < 10 nM | ≥ 70% |
| CNC(=O)COc1cc2cc(Nc3nc(N4CCC(O[C@H]5C[C@H](N6CC[C@@H](c7ccc8c(c7F)CN([C@H]7CCC(=O)NC7=O)C8=O)C[C@H]6C)C5)CC4)ncc3Cl)ccc2n(C(C)C)c1=O [Compound 294, 2-({6-[(5-chloro-2-{4-[(1r,3r)-3-[(2R,4R)-4-{2-[(3S)-2,6-dioxopiperidin-3-yl]-4-fluoro-1-oxo-2,3-dihydro-1H-isoindol-5-yl}-2-methylpiperidin-1-yl]cyclobutoxy]piperidin-1-yl}pyrimidin-4-yl)amino]-2-oxo-1-(propan-2-yl)-1,2-dihydroquinolin-3-yl}oxy)-N-methylacetamide] | ≥ 70% | < 10 nM | – | – |

Reference: patent publication US11986532B2 (Arvinas Operations, Inc., priority 2021, dated 2024)
